Measured values taken from paper PMC10552397 (Cell Communication and Signaling : CCS, 2023).

What was measured:
[1] = test system: HeLa wt cells; experiment: Immunofluorescence of GRASP55 and LC3; type: cell-based; settings: 6 h; BafA1 10 nM
Experimental: (§1) For immunofluorescence microscopy, HeLa cells were seeded on glass coverslips in 24-well plates. After treatment, cells were fixed in 4% paraformaldehyde for 15 min on ice, quenched with 50 mM NH4Cl for 15 min and permeabilized with 50 µg/mL digitonin (Sigma-Aldrich, St. Louis, MO, USA, #D141) for 5 min. Fixed samples were blocked with 3% BSA (Roth, Karlsruhe, Germany, #8076) for 30 min or overnight and incubated with primary antibodies diluted in 3% BSA for 2 h. Samples were then washed three times with DPBS, incubated with the appropriate secondary antibodies diluted in 3% BSA for 30 min and washed three times with DPBS. Afterwards, cells were embedded in ProLong Glass Antifade Mountant (Thermo Fisher Scientific, Waltham, MA, USA, #P36980) containing 1 µg/mL DAPI (Roth, Karlsruhe, Germany, #6335.1). Images were recorded with an Axio Observer 7 fluorescence microscope (Carl Zeiss Microscopy, Oberkochen, Germany) using a 40x/1,4 Oil DIC M27 Plan-Apochromat objective (Carl Zeiss Microscopy, Oberkochen, Germany) and an ApoTome 2 (Carl Zeiss Microscopy, Oberkochen, Germany).

[2] = test system: HeLa wt cells; experiment: Immunofluorescence of LC3 and LAMP1; type: cell-based; settings: 2 h; prodigiosin 100 nM, BafA1 10 nM
Experimental: as §1

CO/C1=C\C(C)=C\[C@@H](C)[C@@H](O)[C@@H](C)C/C(C)=C/C=C/[C@H](OC)[C@@H]([C@@H](C)[C@@H](O)[C@H](C)[C@@]2(O)C[C@@H](O)[C@H](C)[C@@H](C(C)C)O2)OC1=O [BafA1, bafilomycin A1, reference compound]
co-localization of LC3 and GRASP55 [1]: no significant increase | number of LC3 dots [1]: enriched | LC3-positive structures [2]: only minor | co-localization of LC3- and LAMP1-positive structures [2]: comparatively low
